Reference: ChEMBL document CHEMBL1126791, “Synthesis and antibacterial activity of a new series of tetracyclic pyridone carboxylic acids” (J Med Chem, 1993)
Converted amounts (≈) assume the structure as drawn.

Legend:
Enterococcus faecalis = assay: In vitro minimum inhibitory concentration against E. Faecalis IID682; format: functional
Escherichia coli [1] = assay: In vitro minimum inhibitory concentration against Escherichia coli KC-14; format: functional
Escherichia coli [2] = assay: In vitro minimum inhibitory concentration against Escherichia coli KL-16; format: functional
Escherichia coli [3] = assay: In vitro minimum inhibitory concentration against Escherichia coli NIHJ JC-2; format: functional
Escherichia coli [4] = assay: Inhibitory effect on DNA gyrase supercoiling activity against Escherichia coli KL-16; format: functional
Klebsiella pneumoniae = assay: In vitro minimum inhibitory concentration against Klebsiella pneumoniae B54; format: functional
Pseudomonas aeruginosa [5] = assay: In vitro minimum inhibitory concentration against Pseudomonas aeruginosa IFO 3445; format: functional
Salmonella typhimurium = assay: In vitro minimum inhibitory concentration against Salmonella Typhimurium IID 971; format: functional, Salmonella enterica subsp. enterica serovar Typhimurium; conditions: Salmonella enterica
[6] = tested on: Staphylococcus epidermidis; assay: In vitro minimum inhibitory concentration against Staphylococcus epidermidis IAM 1296; format: functional
Staphylococcus aureus [7] = assay: In vitro minimum inhibitory concentration against Staphylococcus aureus FDA 209P JC-1; format: functional
Staphylococcus aureus [8] = assay: In vitro minimum inhibitory concentration against Staphylococcus aureus IID 803; format: functional
Pseudomonas aeruginosa [9] = assay: In vitro minimum inhibitory concentration against Pseudomonas aeruginosa E-2; format: functional
Escherichia coli [10] = assay: Oral antibacterial activity against Escherichia coli KC-14 in mice; format: functional
Pseudomonas aeruginosa [11] = assay: Oral antibacterial activity against Pseudomonas aeruginosa E-2 in mice; format: functional
Staphylococcus aureus [12] = assay: Oral antibacterial activity against Staphylococcus aureus IID 803 in mice (95% confidence limits); format: functional

| MIC (Enterococcus faecalis) [µg/mL] | MIC (Escherichia coli [1]) [µg/mL] | MIC (Escherichia coli [2]) [µg/mL] | MIC (Escherichia coli [3]) [µg/mL] | IC50 (Escherichia coli [4]) [µg/mL] | MIC (Klebsiella pneumoniae) [µg/mL] | MIC (Pseudomonas aeruginosa [5]) [µg/mL] | MIC (Salmonella typhimurium) [µg/mL] | MIC [6] [µg/mL] | MIC (Staphylococcus aureus [7]) [µg/mL] | MIC (Staphylococcus aureus [8]) [µg/mL] | MIC (Pseudomonas aeruginosa [9]) [µg/mL] | Compound | ED50 (Escherichia coli [10]) [mg/kg] | ED50 (Pseudomonas aeruginosa [11]) [mg/kg] | ED50 (Staphylococcus aureus [12]) [mg/kg] |
| --- | --- | --- | --- | --- | --- | --- | --- | --- | --- | --- | --- | --- | --- | --- | --- |
| 0.78 (≈ 1.87 µM) | 0.2 (≈ 0.48 µM) | 0.2 (≈ 0.48 µM) | 0.39 (≈ 0.936 µM) | 0.25 (≈ 0.6 µM) | 0.2 (≈ 0.48 µM) | 3.13 (≈ 7.52 µM) | 0.2 (≈ 0.48 µM) | 0.2 (≈ 0.48 µM) | 0.2 (≈ 0.48 µM) | 0.2 (≈ 0.48 µM) | 3.13 (≈ 7.52 µM) | CCN1Cc2csc3c(C(=O)O)c(=O)c4cc(F)c(N5CCN(C)CC5)c1c4n23 |  |  |  |
| 0.1 (≈ 0.248 µM) | 0.05 (≈ 0.124 µM) | 0.05 (≈ 0.124 µM) | 0.05 (≈ 0.124 µM) | 0.16 (≈ 0.398 µM) | 0.05 (≈ 0.124 µM) | 0.39 (≈ 0.969 µM) | 0.05 (≈ 0.124 µM) | 0.05 (≈ 0.124 µM) | 0.05 (≈ 0.124 µM) | 0.05 (≈ 0.124 µM) | 0.78 (≈ 1.94 µM) | CN1CCN(c2c(F)cc3c(=O)c(C(=O)O)c4scc5n4c3c2N(C)C5)CC1 | 0.9 | 10.2 | 2.8 |
| 0.78 (≈ 1.82 µM) | 0.1 (≈ 0.233 µM) | 0.2 (≈ 0.467 µM) | 0.2 (≈ 0.467 µM) | 0.34 (≈ 0.793 µM) | 0.2 (≈ 0.467 µM) | 1.56 (≈ 3.64 µM) | 0.39 (≈ 0.91 µM) | 0.39 (≈ 0.91 µM) | 0.2 (≈ 0.467 µM) | 0.2 (≈ 0.467 µM) | 3.13 (≈ 7.3 µM) | CN1CCN(c2c(F)cc3c(=O)c(C(=O)O)c4scc5n4c3c2N(C2CC2)C5)CC1 |  |  |  |
| 25 | 12.5 | 25 | 25 | > 10 | 50 | 100 | 50 | 12.5 | 6.25 | 3.13 | 100 | CN1CCN(c2c(F)cc3c(=O)c(C(=O)O)c4scc5n4c3c2N(Cc2ccccc2)C5)CC1.Cl |  |  |  |
| 25 | 3.13 | 3.13 | 3.13 | 1.76 | 3.13 | 100 | 3.13 | 1.56 | 1.56 | 0.78 | 100 | CN1CCN(c2c(F)cc3c(=O)c(C(=O)O)c4scc5n4c3c2N(c2ccccc2)C5)CC1.Cl |  |  |  |
| 50 | 12.5 | 12.5 | 12.5 | > 10 | 25 | 100 | 12.5 | 12.5 | 6.25 | 6.25 | 100 | CN1CCN(c2c(F)cc3c(=O)c(C(=O)O)c4scc5n4c3c2C(=O)C5)CC1.Cl |  |  |  |
| 0.39 (≈ 1 µM) | 0.1 (≈ 0.257 µM) | 0.05 (≈ 0.128 µM) | 0.1 (≈ 0.257 µM) | 0.14 (≈ 0.36 µM) | 0.1 (≈ 0.257 µM) | 0.78 (≈ 2 µM) | 0.05 (≈ 0.128 µM) | 0.2 (≈ 0.514 µM) | 0.1 (≈ 0.257 µM) | 0.1 (≈ 0.257 µM) | 0.78 (≈ 2 µM) | CN1CCN(c2c(F)cc3c(=O)c(C(=O)O)c4scc5n4c3c2OC5)CC1 | 1.4 | 11.7 | 12.3 |
| 3.13 | 0.39 | 0.78 | 0.78 | 0.45 | 12.5 | 1.56 | 0.78 | 0.78 | 0.39 | 0.39 | 6.25 | C=CCN1Cc2csc3c(C(=O)O)c(=O)c4cc(F)c(N5CCN(C)CC5)c1c4n23.Cl |  |  |  |
| 0.78 (≈ 1.92 µM) | 0.2 (≈ 0.493 µM) | 0.2 (≈ 0.493 µM) | 0.2 (≈ 0.493 µM) | 0.24 (≈ 0.592 µM) | 0.2 (≈ 0.493 µM) | 3.13 (≈ 7.72 µM) | 0.1 (≈ 0.247 µM) | 0.39 (≈ 0.962 µM) | 0.2 (≈ 0.493 µM) | 0.2 (≈ 0.493 µM) | 3.13 (≈ 7.72 µM) | CN1CCN(c2c(F)cc3c(=O)c(C(=O)O)c4scc5n4c3c2SC5)CC1 |  |  |  |

| Compound | MIC (Enterococcus faecalis) [µg/mL] | MIC (Escherichia coli [1]) [µg/mL] | MIC (Escherichia coli [2]) [µg/mL] | MIC (Escherichia coli [3]) [µg/mL] | IC50 (Escherichia coli [4]) [µg/mL] | MIC (Klebsiella pneumoniae) [µg/mL] | MIC (Pseudomonas aeruginosa [5]) [µg/mL] | MIC (Salmonella typhimurium) [µg/mL] | MIC [6] [µg/mL] | MIC (Staphylococcus aureus [7]) [µg/mL] | MIC (Staphylococcus aureus [8]) [µg/mL] | MIC (Pseudomonas aeruginosa [9]) [µg/mL] | ED50 (Escherichia coli [10]) [mg/kg] | ED50 (Pseudomonas aeruginosa [11]) [mg/kg] | ED50 (Staphylococcus aureus [12]) [mg/kg] |
| --- | --- | --- | --- | --- | --- | --- | --- | --- | --- | --- | --- | --- | --- | --- | --- |
| CC1COc2c(N3CCN(C)CC3)c(F)cc3c(=O)c(C(=O)O)cn1c23 (centres undefined) [OFLOXACIN] | 1.56 (≈ 4.32 µM) | 0.1 (≈ 0.277 µM) |  | 0.1 (≈ 0.277 µM) |  | 0.1 (≈ 0.277 µM) | 1.56 (≈ 4.32 µM) | 0.05 (≈ 0.138 µM) | 0.78 (≈ 2.16 µM) | 0.39 (≈ 1.08 µM) | 0.39 (≈ 1.08 µM) | 1.56 (≈ 4.32 µM) |  |  |  |
